Test results as given in patent publication US7182963B2, “Cosmetic and dermopharmaceutical compositions for skin prone to acne” (priority 2001, dated 2007).
One block for each compound: values may come before it.

Experiments:
P. acnes = experiment: Antibacterial effect, agar incorporation, strain D; assay type: cell-based, Propionibacterium acnes; design: key to bacterial growth, strain D: ‘+’ = bacterial growth; ‘−’ = no bacterial growth; details: for bacterial growth, strain D: 24 h (same at 48 h), equivalent to 5% premix
Experimental: (§1) Test Principle and Implementation: 1 mL of the premix in example No. 1 or its constituents at concentrations equivalent to 5% of the premix were incorporated in molten agar medium (BioMérieux) plated in a Petri dish. […] The plates were then incubated at 37° C. for 24 and 48 hours and inspected visually. Five strains, Corynebacterium minutissimum, Propionibacterium acnes, Staphylococcus aureus, Staphylococcus hominis and Acinetobacterium calcoaceticus were studied.

Staphylococcus hominis = experiment: Antibacterial effect, agar incorporation, strain B; assay type: cell-based; design: key to bacterial growth, strain B: ‘+’ = bacterial growth; ‘−’ = no bacterial growth; details: for bacterial growth, strain B: 24 h (same at 48 h), equivalent to 5% premix
Experimental: as §1

[1] = tested on: Acinetobacterium calcoaceticus; experiment: Antibacterial effect, agar incorporation, strain E; assay type: cell-based; design: key to bacterial growth, strain E: ‘+’ = bacterial growth; ‘−’ = no bacterial growth; details: for bacterial growth, strain E: 24 h (same at 48 h), equivalent to 5% premix; for antimicrobial activity: A. calcoaceticus
Experimental: as §1

Staphylococcus aureus = experiment: Antibacterial effect, agar incorporation, strain C; assay type: cell-based; design: key: ‘+’ = bacterial growth; ‘−’ = no bacterial growth; details: 24 h (same at 48 h), equivalent to 5% premix
Experimental: as §1

[2] = tested on: Corynebacterium minutissimum; experiment: Antibacterial effect, agar incorporation, strain A; assay type: cell-based; design: key: ‘+’ = bacterial growth; ‘−’ = no bacterial growth; details: 24 h (same at 48 h), equivalent to 5% premix
Experimental: as §1

[3] = tested on: interleukin 6 (IL-6) on normal human keratinocytes (HK); experiment: Anti-inflammatory effect: IL-6 (ELISA) in normal human keratinocytes after UV-B irradiation; assay type: cell-based; details: for HK % change (IL-6 vs. tests without UV exposure): UV-B 50 mJ.cm^−2, 24 hours
Experimental: (§2) Principle and test implementation: it is possible to estimate a degree of inflammation by determining the quantity of mediators such as prostaglandins, leukotrienes or interleukins. In this example, we selected assay of interleukin 6 (IL-6) on normal human fibroblasts (HF) and keratinocytes (HK) in culture following exposure to UV-B irradiation. Broadly speaking, the cells were cultured in a conventional culture medium (DMEMc+10% FCS) for periods of 24 hours for HF and 1 week for HK. After elimination of the buffer and 2 successive washings with phosphate buffer solution, the cells were exposed to UV-B irradiation at a standardized energy level of 50 mJ.cm^−2. The buffer was then rapidly eliminated and replaced by the same culture medium as that used at the start of the experiment, but containing the test extracts at the prerequisite concentrations or DMSO for the control series. After 24 hours, the culture medium was harvested and IL-6 concentration determined using a standard ELISA method. An additional series was conducted using the same protocol but without UV-B irradiation in order to determine the baseline level and control the stability of the study system. All the assays were conducted in triplicate.

5α-reductase [4] = experiment: Inhibition of 5α-reductase, HPLC determination of testosterone, in vitro; assay type: biochemical; details: for % inhibition: mean±SEM, 5 assays
Experimental: Principle and implementation of the test: the aim of this test was to confirm the previous result but using an HPLC analysis method. Unlike 5-DHT, testosterone absorbs light at the wavelength used (245 nm). The decrease in testosterone peak area (which was characterized under our operating conditions by a retention time of 26 minutes) reflects the reduction of the concentration of the compound in the study medium and thus reflects 5α-reductase activity.
The same type of protocol as in the previous example was used, but instead of determining the absorbances, the reaction media were analyzed by HPLC.

5α-reductase [5] = experiment: Inhibition of 5α-reductase, enzymatic assay (NADPH absorbance at 340 nm), in vitro; assay type: biochemical; details: for % inhibition: mean±SEM, 5 assays
Experimental: Principle and implementation of the test (adapted from Zy and Zu, 1998):
Testosterone is irreversibly metabolized by 5α-reductase to […] (5-DHT) in the presence of the cofactor NADPH. The reaction is monitored, at 37° C., by determining, using a spectrophotometer, the reduction in the absorbance of the reaction medium at 340 nm, due to the conversion of NADPH to NADP.
The test thus consists in mixing testosterone, NADPH and the test product or its vehicle alone (control reaction). After 3 minutes to allow the system to equilibrate, the baseline absorbance of the system is determined. Then the reaction is triggered by addition of the enzyme, 5α-reductase. After 10 minutes, a second determination of the absorbance, final absorbance, is conducted. The difference between the two measurements reflects the quantity of NADPH consumed. That quantity is proportional to the quantity of testosterone converted to 5-DHT.

[6] = tested on: interleukin 6 (IL-6) on normal human fibroblasts (HF); experiment: Anti-inflammatory effect: IL-6 (ELISA) in normal human fibroblasts after UV-B irradiation; assay type: cell-based; details: for HF % change (IL-6 vs. tests without UV exposure): UV-B 50 mJ.cm^−2, 24 hours
Experimental: as §2

[7] = tested on: normal human keratinocytes (HK); experiment: Antiproliferative effect on keratinocytes (DNA quantity, Hoechst 33258); assay type: cell-based; details: for % inhibition (quantity of DNA, number of cells): 1 week culture
Excerpt: Test principle and implementation: since the quantity of DNA is constant for each cell, the determination of the overall quantity of DNA is equivalent to measuring the number of cells used for the determination. This principle enables routine use of more refined but very cumbersome methodologies to be avoided. Various methods have been developed on the basis of this protocol, of which, in particular, that used herein. When bound to DNA with a constant and known stereochemistry, the fluorophore, Hoechst 33258, presents, first, increased fluorescence, but also an emission spectrum shift from 492 to 458 nm. By means of comparison with pre-established sets of standards, the concomitant monitoring of the above 2 parameters enables quantification of the quantity of DNA present in the cell samples studied. Broadly speaking, normal human keratinocytes (HK) are cultured in a classic culture medium (DMEMc+10% FCS) for 1 week, in the absence of the test product (control series in order to determine the baseline cell proliferation of the system studied) or in the presence of the test products alone or in combination. Fluorophore Hoechst 33258 was added at the end of the protocol before withdrawing cell aliquots for assay. The assays were conducted in triplicate as 3 mutually independent assays.

[8] = [c] 0.01%, listed as nordihydroguaiaretic acid

SMILES: Oc1cc(Cl)ccc1Oc1ccc(Cl)cc1Cl [Trichlosan]
bacterial growth, strain D (P. acnes; 10^4 bacteria/mL): −
bacterial growth, strain D (P. acnes; 10^5 bacteria/mL): −
bacterial growth, strain B (Staphylococcus hominis; 10^4 bacteria/mL): −
bacterial growth, strain B (Staphylococcus hominis; 10^5 bacteria/mL): −
bacterial growth, strain E ([1]; 10^4 bacteria/mL): −
bacterial growth, strain E ([1]; 10^5 bacteria/mL): −
bacterial growth, strain C (Staphylococcus aureus; 10^4 bacteria/mL): −
bacterial growth, strain C (Staphylococcus aureus; 10^5 bacteria/mL): −
bacterial growth, strain A ([2]; 10^4 bacteria/mL): −
bacterial growth, strain A ([2]; 10^5 bacteria/mL): −

activity in the test (5α-reductase [4]): no activity
% inhibition (5α-reductase [4]; [c] 0.01%): 1.2 ± 0.4%
% inhibition (5α-reductase [4]; [c] 0.04%): 1.0 ± 0.9%
% inhibition (5α-reductase [4]; [c] 0.1%): 0.9 ± 0.7%
activity in the test (5α-reductase [5]): no activity
% inhibition (5α-reductase [5]; [c] 0.01%): 2.1 ± 1.6%
% inhibition (5α-reductase [5]; [c] 0.04%): 3.7 ± 2.9%
% inhibition (5α-reductase [5]; [c] 0.1%): 3.0 ± 1.9%
SMILES: CC(Cc1ccc(O)c(O)c1)C(C)Cc1ccc(O)c(O)c1 (stereo not drawn) [NDGA, nordihydroguaiaretic acid]
inhibition vs. irradiated control (HK) ([3]; 0.01%): 14%
HK % change (IL-6 vs. tests without UV exposure) ([3]; [c] 0.01%): +388 ± 10%
HK % change (IL-6 vs. tests without UV exposure) [3, 8]: +388%
HK % change (IL-6 vs. tests without UV exposure) ([3]; [c] 0.04%): +201 ± 10%
HK % change (IL-6 vs. tests without UV exposure) ([3]; [c] 0.1%): +91 ± 14%
antimicrobial activity (Staphylococcus hominis; S. hominis): selective antimicrobial activity
antimicrobial activity [1]: selective antimicrobial activity
inhibition vs. irradiated control (HF) ([6]; 0.01%): 19%
HF % change (IL-6 vs. tests without UV exposure) ([6]; [c] 0.01%): +356 ± 18%
HF % change (IL-6 vs. tests without UV exposure) [6, 8]: +356%
HF % change (IL-6 vs. tests without UV exposure) ([6]; [c] 0.04%): +155 ± 9%
HF % change (IL-6 vs. tests without UV exposure) ([6]; [c] 0.1%): +87 ± 7%
% inhibition (quantity of DNA, number of cells) ([7]; [c] 0.04%): 22.3 ± 1.9%
% inhibition (quantity of DNA, number of cells) ([7]; [c] 0.1%): 29.9 ± 1.7%

% inhibition (5α-reductase [4]; [c] 0.01%): 10.9 ± 1.4%
% inhibition (5α-reductase [4]; [c] 0.03%): 25.6 ± 2.0%
% inhibition (5α-reductase [4]; [c] 0.1%): 48%
% inhibition (5α-reductase [4]; [c] 0.1%, listed as Oleanolic acid (obtained from olive tree leaves)): 47.7 ± 3.8%
% inhibition (5α-reductase [5]; [c] 0.01%): 16.7 ± 1.1%
% inhibition (5α-reductase [5]; [c] 0.03%): 31.7 ± 2.9%
% inhibition (5α-reductase [5]; [c] 0.1%): 56.3 ± 2.6%
% inhibition (5α-reductase [5]; [c] 0.1%, listed as oleanolic acid): 56%
SMILES: CC1(C)CC[C@]2(C(=O)O)CC[C@]3(C)C(=CC[C@@H]4[C@@]5(C)CC[C@H](O)C(C)(C)[C@@H]5CC[C@]43C)[C@@H]2C1 [Oleanolic acid, oleanolic acid]
antimicrobial activity (P. acnes; P. acnes): selective antimicrobial activity
activity in the test, HK [3]: devoid of activity
HK % change (IL-6 vs. tests without UV exposure) ([3]; [c] 0.01%): +461 ± 16%
HK % change (IL-6 vs. tests without UV exposure) ([3]; [c] 0.03%): +444 ± 14%
HK % change (IL-6 vs. tests without UV exposure) ([3]; [c] 0.1%): +450 ± 14%
antimicrobial activity [1]: selective antimicrobial activity
activity in the test, HF [6]: devoid of activity
HF % change (IL-6 vs. tests without UV exposure) ([6]; [c] 0.01%): +455 ± 14%
HF % change (IL-6 vs. tests without UV exposure) ([6]; [c] 0.03%): +437 ± 12%
HF % change (IL-6 vs. tests without UV exposure) ([6]; [c] 0.1%): +441 ± 18%
activity in the test [7]: devoid of activity
% inhibition (quantity of DNA, number of cells) ([7]; [c] 0.01%): 0.9 ± 1.0%
% inhibition (quantity of DNA, number of cells) ([7]; [c] 0.03%): 1.1 ± 1.6%
% inhibition (quantity of DNA, number of cells) ([7]; [c] 0.1%): 0.7 ± 0.7%
